Experimental data published in patent publication US11180484B2, “Pyrazole derivatives as plasma kallikrein inhibitors” (KALVISTA PHARMACEUTICALS LIMITED, priority 2016, dated 2021).

Legend:
Type in all cases: biochemical
Human KLK1 = Human KLK1 (Homo sapiens (Human), UniProt P06870); assay: Determination of the IC50 for KLK1; settings: 25° C., substrate H-DVal-Leu-Arg-AFC
Experimental: (§1) Human KLK1 (Callbiochem) was incubated at 25° C. with the fluorogenic substrate H-DVal-Leu-Arg-AFC and various concentrations of the test compound. Residual enzyme activity (initial rate of reaction) was determined by measuring the change in […] at 410 nm and the IC50 value for the test compound was determined.

Human FXIa = Human FXIa (Homo sapiens (Human), UniProt P03951); assay: Determination of the % inhibition / IC50 for FXIa; settings: for IC50: 25° C., substrate Z-Gly-Pro-Arg-AFC
Experimental: FXIa inhibitory activity in vitro was determined using standard published methods (see e.g. Johansen et al., Int. J. Tiss. Reac. 1986, 8, 185; Shori et al., Biochem. Pharmacol., 1992, 43, 1209; Sturzebecher et al., Biol. Chem. Hoppe-Seyler, 1992, 373, 1025). […]

Human Factor XIIa = Human Factor XIIa (Homo sapiens (Human), UniProt P00748); assay: Factor XIIa inhibitory activity in vitro; settings: 25° C., substrate H-DPro-Phe-Arg-AFC; read-out: IC50 (human FXIIa)
Experimental: as §1, with “Factor XIIa (Enzyme Research Laboratories)” for “KLK1 (Callbiochem)”, “H-DPro-Phe-Arg-AFC” for “H-DVal-Leu-Arg-AFC”

Human plasma kallikrein = Human plasma kallikrein (Homo sapiens (Human), UniProt P03952); assay: Determination of the IC50 for plasma kallikrein; settings: 25° C., substrate H-DPro-Phe-Arg-AFC; read-out: IC50 (human PKal)
Experimental: as §1, with “plasma kallikrein (Protogen)” for “KLK1 (Callbiochem)”, “H-DPro-Phe-Arg-AFC” for “H-DVal-Leu-Arg-AFC”

Human plasma kallikrein, sequence (P03952 391-638): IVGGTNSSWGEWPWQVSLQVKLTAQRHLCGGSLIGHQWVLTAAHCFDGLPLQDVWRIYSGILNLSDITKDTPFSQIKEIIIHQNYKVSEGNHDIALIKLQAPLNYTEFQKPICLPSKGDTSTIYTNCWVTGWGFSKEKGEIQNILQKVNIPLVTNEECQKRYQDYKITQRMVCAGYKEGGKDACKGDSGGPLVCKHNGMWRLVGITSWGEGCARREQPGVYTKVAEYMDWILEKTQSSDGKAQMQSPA
Human plasma kallikrein, sequence (P03952 20-390): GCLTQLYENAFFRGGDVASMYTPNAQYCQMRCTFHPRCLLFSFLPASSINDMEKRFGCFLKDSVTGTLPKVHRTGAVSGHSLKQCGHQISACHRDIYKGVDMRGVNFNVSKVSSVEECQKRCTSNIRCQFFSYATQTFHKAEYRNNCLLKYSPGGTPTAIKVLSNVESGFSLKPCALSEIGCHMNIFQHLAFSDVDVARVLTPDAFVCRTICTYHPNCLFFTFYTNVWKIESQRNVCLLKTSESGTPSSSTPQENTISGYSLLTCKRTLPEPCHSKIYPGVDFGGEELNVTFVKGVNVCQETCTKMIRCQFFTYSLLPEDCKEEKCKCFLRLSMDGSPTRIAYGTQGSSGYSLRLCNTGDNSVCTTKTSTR
Human KLK1, sequence (P06870 25-262): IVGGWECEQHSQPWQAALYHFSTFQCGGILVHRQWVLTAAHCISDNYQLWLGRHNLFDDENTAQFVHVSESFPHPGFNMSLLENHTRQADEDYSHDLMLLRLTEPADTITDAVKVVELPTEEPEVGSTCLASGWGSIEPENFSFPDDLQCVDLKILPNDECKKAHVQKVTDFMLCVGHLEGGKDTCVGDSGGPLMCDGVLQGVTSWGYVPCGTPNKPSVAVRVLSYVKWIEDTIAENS
Human Factor XIIa, sequence (P00748 373-615): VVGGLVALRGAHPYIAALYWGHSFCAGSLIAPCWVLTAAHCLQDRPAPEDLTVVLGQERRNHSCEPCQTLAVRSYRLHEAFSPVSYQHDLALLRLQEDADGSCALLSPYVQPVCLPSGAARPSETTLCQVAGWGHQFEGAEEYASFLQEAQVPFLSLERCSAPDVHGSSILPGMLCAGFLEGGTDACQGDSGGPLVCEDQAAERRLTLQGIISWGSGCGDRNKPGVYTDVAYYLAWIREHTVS
Human FXIa, sequence (P03951 388-625): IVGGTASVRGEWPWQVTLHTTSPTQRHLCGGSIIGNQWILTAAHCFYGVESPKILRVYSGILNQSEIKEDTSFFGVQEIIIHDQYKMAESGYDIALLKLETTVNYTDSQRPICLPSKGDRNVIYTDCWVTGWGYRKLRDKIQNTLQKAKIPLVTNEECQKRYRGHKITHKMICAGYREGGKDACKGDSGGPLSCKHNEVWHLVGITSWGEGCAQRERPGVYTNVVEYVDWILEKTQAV
Human FXIa, sequence (P03951 19-387): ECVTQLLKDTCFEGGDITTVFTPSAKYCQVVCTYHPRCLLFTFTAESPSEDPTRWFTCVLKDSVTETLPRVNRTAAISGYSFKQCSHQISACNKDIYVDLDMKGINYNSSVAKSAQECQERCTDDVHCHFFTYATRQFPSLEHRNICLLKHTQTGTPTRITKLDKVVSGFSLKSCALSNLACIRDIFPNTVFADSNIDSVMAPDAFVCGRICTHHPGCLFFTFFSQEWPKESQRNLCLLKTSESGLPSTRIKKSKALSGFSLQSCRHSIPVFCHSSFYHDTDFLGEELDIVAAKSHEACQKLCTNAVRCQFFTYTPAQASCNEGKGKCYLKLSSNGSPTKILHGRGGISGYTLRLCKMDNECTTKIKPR

SMILES | IC50 (Human KLK1) [µM] | IC50 (Human FXIa) [µM] | IC50 (Human Factor XIIa) [µM] | IC50 (Human plasma kallikrein) [nM] | inhibition at 40 µM (Human FXIa; 40 μM test compound, read-out: % Inhibition @ 40 μM (human FXIa)) [%]
COCc1nn(Cc2ccc(Cn3ccccc3=O)cc2)cc1C(=O)NCc1cc(OC)cc(OC)c1 [Reference Example A, N-(3,5-Dimethoxybenzyl)-3-(methoxymethyl)-1-(4-((2-oxopyridin-1(2H)-yl)methyl)benzyl)-1H-pyrazole-4-carboxamide, reference compound] | > 10 | > 40 | – | – | –
COCc1nn(Cc2ccc(Cn3ccccc3=O)cc2)cc1C(=O)NCc1cccc(OC)c1C#N [Example 38, N-[(2-cyano-3-methoxyphenyl)methyl]-3-(methoxymethyl)-1-({4-[(2-oxopyridin-1-yl)methyl]phenyl}methyl)pyrazole-4-carboxamide] | > 4 | > 40 | > 4 | 301 | –
COc1cccc(CNC(=O)c2cn(Cc3ccc(N4CCCC4)nc3)nc2C(F)(F)F)c1F [Reference Example G, 1-(6-Pyrrolidin-1-yl-pyridin-3-ylmethyl)-3-trifluoromethyl-1H-pyrazole-4-carboxylic acid 2-fluoro-3-methoxy-benzylamide, reference compound] | > 10 | > 40 | – | – | –
COCc1nn(Cc2ccc(Cn3ccccc3=O)cc2)cc1C(=O)NCc1cc(OC)ccc1C [Example 41, N-[(5-methoxy-2-methylphenyl)methyl]-3-(methoxymethyl)-1-({4-[(2-oxopyridin-1-yl)methyl]phenyl}methyl)pyrazole-4-carboxamide] | > 4 | > 40 | > 4 | 149 | –
COCc1nn(Cc2ccc(Cn3ccccc3=O)cc2)cc1C(=O)NCc1ncccc1C#N [Example 13, N-[(3-cyanopyridin-2-yl)methyl]-3-(methoxymethyl)-1-({4-[(2-oxopyridin-1-yl)methyl]phenyl}methyl)pyrazole-4-carboxamide] | > 4 | > 40 | > 4 | 2950 | –
COCc1nn(Cc2ccc(Cn3ccccc3=O)cc2)cc1C(=O)NCc1cc(OC)ncn1 [Example 4, 3-(methoxymethyl)-N-[(6-methoxypyrimidin-4-yl)methyl]-1-({4-[(2-oxopyridin-1-yl)methyl]phenyl}methyl)pyrazole-4-carboxamide] | > 4 | > 40 | > 4 | 2300 | –
COCc1nn(Cc2ccc(Cn3ccccc3=O)cc2)cc1C(=O)NCc1c(C#N)ccc(OC)c1F [Reference Example E, 3-Methoxymethyl-1-[4-(2-oxo-2H-pyridin-1-ylmethyl)-benzyl]-1H-pyrazole-4-carboxylic acid 6-cyano-2-fluoro-3-methoxy-benzylamide, reference compound] | – | > 40 | > 40 | – | –
COCc1nn(Cc2ccc(Cn3ccccc3=O)cc2)cc1C(=O)NCc1ncc(F)cc1F [Example 26, N-[(3,5-difluoropyridin-2-yl)methyl]-3-(methoxymethyl)-1-({4-[(2-oxopyridin-1-yl)methyl]phenyl}methyl)pyrazole-4-carboxamide] | > 40 | > 40 | > 40 | 1760 | –
COCc1nn(Cc2ccc(Cn3ccccc3=O)cc2)cc1C(=O)NCc1cc(OC)ncc1C#N [Example 8, N-[(5-cyano-2-methoxypyridin-4-yl)methyl]-3-(methoxymethyl)-1-({4-[(2-oxopyridin-1-yl)methyl]phenyl}methyl)pyrazole-4-carboxamide] | > 4 | > 40 | > 4 | 162 | –
COCc1nn(Cc2ccc(Cn3ccccc3=O)cc2)cc1C(=O)NCc1nc(C)ccc1F [Example 27, N-[(3-fluoro-6-methylpyridin-2-yl)methyl]-3-(methoxymethyl)-1-({4-[(2-oxopyridin-1-yl)methyl]phenyl}methyl)pyrazole-4-carboxamide] | > 40 | > 40 | > 40 | 775 | –
COCc1nn(Cc2ccc(Cn3ccccc3=O)cc2)cc1C(=O)NCc1nn(C)cc1Cl [Example 34, N-[(4-chloro-1-methylpyrazol-3-yl)methyl]-3-(methoxymethyl)-1-({4-[(2-oxopyridin-1-yl)methyl]phenyl}methyl)pyrazole-4-carboxamide] | > 40 | > 40 | – | 709 | –
COCc1nn(Cc2ccc(Cn3ccccc3=O)cc2)cc1C(=O)NCc1nccc(C)c1F [Example 28, N-[(3-fluoro-4-methylpyridin-2-yl)methyl]-3-(methoxymethyl)-1-({4-[(2-oxopyridin-1-yl)methyl]phenyl}methyl)pyrazole-4-carboxamide] | > 40 | > 40 | > 40 | 163 | –
COCc1nn(Cc2ccc(Cn3ccccc3=O)cc2)cc1C(=O)NCc1cc(OC)n(C)n1 [Example 31, N-[(5-methoxy-1-methylpyrazol-3-yl)methyl]-3-(methoxymethyl)-1-({4-[(2-oxopyridin-1-yl)methyl]phenyl}methyl)pyrazole-4-carboxamide] | > 40 | > 40 | > 40 | 462 | –
COCc1nn(Cc2ccc(Cn3ccccc3=O)cc2)cc1C(=O)NCc1cc(OC)c(C)cn1 [Example 20, N-[(4-methoxy-5-methylpyridin-2-yl)methyl]-3-(methoxymethyl)-1-({4-[(2-oxopyridin-1-yl)methyl]phenyl}methyl)pyrazole-4-carboxamide] | > 40 | > 40 | > 40 | 3220 | 0
COCc1nn(Cc2ccc(Cn3ccccc3=O)cc2)cc1C(=O)NCc1nccc(C)c1Cl [Example 29, N-[(3-chloro-4-methylpyridin-2-yl)methyl]-3-(methoxymethyl)-1-({4-[(2-oxopyridin-1-yl)methyl]phenyl}methyl)pyrazole-4-carboxamide] | > 40 | > 40 | > 40 | 217 | –
COCc1nn(Cc2ccc(Cn3ccccc3=O)cc2)cc1C(=O)NCc1nccc(OC)c1F [Reference Example D, 3-Methoxymethyl-1-[4-(2-oxo-2H-pyridin-1-ylmethyl)-benzyl]-1H-pyrazole-4-carboxylic acid (3-fluoro-4-methoxy-pyridin-2-ylmethyl)-amide, reference compound] | > 40 | > 40 | > 40 | – | –
COCc1nn(Cc2ccc(Cn3ccccc3=O)cc2)cc1C(=O)NCc1ncc(Cl)cc1C#N [Example 16, N-[(5-chloro-3-cyanopyridin-2-yl)methyl]-3-(methoxymethyl)-1-({4-[(2-oxopyridin-1-yl)methyl]phenyl}methyl)pyrazole-4-carboxamide] | > 40 | > 40 | > 40 | 187 | –
COCc1nn(Cc2ccc(Cn3ccccc3=O)cc2)cc1C(=O)NCc1nccc(OC)n1 [Example 10, 3-(methoxymethyl)-N-[(4-methoxypyrimidin-2-yl)methyl]-1-({4-[(2-oxopyridin-1-yl)methyl]phenyl}methyl)pyrazole-4-carboxamide] | > 40 | > 40 | > 40 | 2450 | –
COCc1nn(Cc2ccc(Cn3ccccc3=O)cc2)cc1C(=O)NCc1ncc(Cl)cc1F [Example 17, N-[(5-chloro-3-fluoropyridin-2-yl)methyl]-3-(methoxymethyl)-1-({4-[(2-oxopyridin-1-yl)methyl]phenyl}methyl)pyrazole-4-carboxamide] | > 40 | > 40 | > 40 | 143 | –
COCc1nn(Cc2ccc(Cn3ccccc3=O)cc2)cc1C(=O)NCc1ncc(C)c(OC)c1C [Example 11, N-[(4-methoxy-3,5-dimethylpyridin-2-yl)methyl]-3-(methoxymethyl)-1-({4-[(2-oxopyridin-1-yl)methyl]phenyl}methyl)pyrazole-4-carboxamide] | > 40 | > 40 | > 40 | 35 | –
COCc1nn(Cc2ccc(Cn3ccccc3=O)cc2)cc1C(=O)NCc1c(F)ccc(OC)c1C(F)F [Reference Example F, 3-Methoxymethyl-1-[4-(2-oxo-2H-pyridin-1-ylmethyl)-benzyl]-1H-pyrazole-4-carboxylic acid 2-difluoromethyl-6-fluoro-3-methoxy-benzylamide, reference compound] | – | > 40 | – | – | –
COCc1nn(Cc2cnc3cc(Cl)ccc3c2)cc1C(=O)NCc1cccc(OC)c1F [Reference Example C, 1-(7-Chloro-quinolin-3-ylmethyl)-3-methoxymethyl-1H-pyrazole-4-carboxylic acid 2-fluoro-3-methoxy-benzylamide, reference compound] | > 10 | > 40 | – | – | –
